Activity calls are given as the source filed them. No cut-off for these calls is given here.
Assays:
[1] = biological target: T1, Histamine H4 receptor (Homo sapiens, UniProt Q9H3N8); conditions: HEK293
[2] = biological target: Histamine H4 receptor (Rattus norvegicus) (UniProt Q91ZY1); assay: (§1) Antagonist activity at rat histamine H4 receptor expressed in HEK293 cells assessed as inhibition of histamine-induced intracellular calcium elevation by FLIPR assay; format: functional, cell-based
[3] = system: BMMC; assay: Blockade of histamine-induced morphological changes in BALB/c mouse BMMC by flow cytometry; format: functional, cell-based
[4] = biological target: T2, Histamine H4 receptor (Rattus norvegicus, UniProt Q91ZY1); assay: as §1; format: functional, cell-based
T2 sequence (Q91ZY1 whole entry): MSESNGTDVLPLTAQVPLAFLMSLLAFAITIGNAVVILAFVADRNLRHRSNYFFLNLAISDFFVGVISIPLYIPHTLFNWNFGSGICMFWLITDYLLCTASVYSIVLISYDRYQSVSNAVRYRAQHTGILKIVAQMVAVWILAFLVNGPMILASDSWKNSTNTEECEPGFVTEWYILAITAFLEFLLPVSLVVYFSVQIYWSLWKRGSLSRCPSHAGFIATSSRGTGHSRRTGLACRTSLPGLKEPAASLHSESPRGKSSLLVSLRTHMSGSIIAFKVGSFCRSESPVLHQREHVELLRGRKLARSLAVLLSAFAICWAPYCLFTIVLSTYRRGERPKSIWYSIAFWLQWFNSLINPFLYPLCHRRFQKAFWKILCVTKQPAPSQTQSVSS

[5] = Protein binding in rat; format: ADME, organism-based; conditions: in vivo, read-out: PB (converted)
[6] = biological target: Cytochrome P450 3A4 (Homo sapiens, UniProt P08684); assay: Inhibition of CYP3A4 upto 10 uM; format: ADME
Sequence of Cytochrome P450 3A4 (P08684 whole entry): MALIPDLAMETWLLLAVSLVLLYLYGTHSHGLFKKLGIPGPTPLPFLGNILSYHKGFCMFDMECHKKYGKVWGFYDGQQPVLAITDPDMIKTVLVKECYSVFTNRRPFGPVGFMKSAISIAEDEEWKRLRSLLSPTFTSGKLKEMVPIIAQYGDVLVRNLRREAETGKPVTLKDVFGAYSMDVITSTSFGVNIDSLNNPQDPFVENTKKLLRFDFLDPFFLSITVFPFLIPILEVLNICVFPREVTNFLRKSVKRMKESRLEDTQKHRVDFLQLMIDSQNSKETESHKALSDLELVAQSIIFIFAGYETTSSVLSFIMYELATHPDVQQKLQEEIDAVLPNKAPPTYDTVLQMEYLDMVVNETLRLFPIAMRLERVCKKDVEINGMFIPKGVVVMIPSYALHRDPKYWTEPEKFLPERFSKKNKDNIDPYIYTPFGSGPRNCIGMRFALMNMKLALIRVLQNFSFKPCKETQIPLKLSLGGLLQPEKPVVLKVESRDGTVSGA

[7] = Selectivity ratio of Ki for human histamine H4 receptor to Ki for 5HT2A receptor
[8] = biological target: Cannabinoid receptor 1 (Homo sapiens) (UniProt P21554); assay: Binding affinity to CB1 receptor
Sequence of Cannabinoid receptor 1 (Homo sapiens) (P21554 whole entry): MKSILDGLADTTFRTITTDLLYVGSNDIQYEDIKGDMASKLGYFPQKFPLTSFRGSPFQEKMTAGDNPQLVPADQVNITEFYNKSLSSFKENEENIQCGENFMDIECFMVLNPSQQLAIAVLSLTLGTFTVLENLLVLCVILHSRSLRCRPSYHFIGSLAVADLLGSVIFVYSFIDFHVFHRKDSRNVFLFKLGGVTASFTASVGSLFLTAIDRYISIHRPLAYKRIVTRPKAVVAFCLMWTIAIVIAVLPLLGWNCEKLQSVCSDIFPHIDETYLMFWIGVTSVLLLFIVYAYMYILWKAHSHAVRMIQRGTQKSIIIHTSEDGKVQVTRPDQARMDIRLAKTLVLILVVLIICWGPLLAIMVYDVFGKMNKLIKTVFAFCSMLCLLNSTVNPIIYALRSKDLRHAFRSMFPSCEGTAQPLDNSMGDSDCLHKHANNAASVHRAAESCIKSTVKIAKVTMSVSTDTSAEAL

[9] = biological target: Kappa-type opioid receptor (Homo sapiens) (UniProt P41145); assay: Binding affinity to kappa opioid receptor
Sequence of Kappa-type opioid receptor (Homo sapiens) (P41145 whole entry): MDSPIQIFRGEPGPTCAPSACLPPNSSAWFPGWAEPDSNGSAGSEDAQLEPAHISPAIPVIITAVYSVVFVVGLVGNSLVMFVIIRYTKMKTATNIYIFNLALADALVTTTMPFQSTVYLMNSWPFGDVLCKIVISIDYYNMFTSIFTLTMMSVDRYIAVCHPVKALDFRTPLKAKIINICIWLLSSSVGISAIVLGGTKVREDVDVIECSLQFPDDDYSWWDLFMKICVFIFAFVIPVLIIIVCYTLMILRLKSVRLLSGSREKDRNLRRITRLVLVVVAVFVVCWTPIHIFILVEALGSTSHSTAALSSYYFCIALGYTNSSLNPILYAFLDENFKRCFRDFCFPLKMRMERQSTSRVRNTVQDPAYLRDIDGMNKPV

[10] = organism: Homo sapiens; assay: Selectivity ratio of Ki for human histamine H4 receptor to Ki for human histamine H3 receptor
[11] = system: Mus musculus; assay: Inhibition of clobenpropit-induced itching in ip dosed CD1/ICR mouse assessed as blockade of scratching in hind paw for 25 mins pretreated 30 mins before clobenpropit challenge; format: functional
[12] = Half life in rat at 10 mg/kg, iv; format: ADME, organism-based; parameters: dose 10 mg/kg, route intravenous; conditions: in vivo
[13] = Protein binding in human; format: ADME, organism-based; conditions: in vivo, read-out: PB (converted)
[14] = system: Mus musculus; assay: Antiinflammatory activity against ip dosed BALB/c mouse assessed as inhibition of zymosan-induced peritonitis after 2 hrs pretreated 30 mins before zymosan challenge; format: functional
[15] = biological target: T3, Prostaglandin G/H synthase 2 (Homo sapiens) (UniProt P35354); assay: Binding affinity at COX2
T3 sequence (whole entry): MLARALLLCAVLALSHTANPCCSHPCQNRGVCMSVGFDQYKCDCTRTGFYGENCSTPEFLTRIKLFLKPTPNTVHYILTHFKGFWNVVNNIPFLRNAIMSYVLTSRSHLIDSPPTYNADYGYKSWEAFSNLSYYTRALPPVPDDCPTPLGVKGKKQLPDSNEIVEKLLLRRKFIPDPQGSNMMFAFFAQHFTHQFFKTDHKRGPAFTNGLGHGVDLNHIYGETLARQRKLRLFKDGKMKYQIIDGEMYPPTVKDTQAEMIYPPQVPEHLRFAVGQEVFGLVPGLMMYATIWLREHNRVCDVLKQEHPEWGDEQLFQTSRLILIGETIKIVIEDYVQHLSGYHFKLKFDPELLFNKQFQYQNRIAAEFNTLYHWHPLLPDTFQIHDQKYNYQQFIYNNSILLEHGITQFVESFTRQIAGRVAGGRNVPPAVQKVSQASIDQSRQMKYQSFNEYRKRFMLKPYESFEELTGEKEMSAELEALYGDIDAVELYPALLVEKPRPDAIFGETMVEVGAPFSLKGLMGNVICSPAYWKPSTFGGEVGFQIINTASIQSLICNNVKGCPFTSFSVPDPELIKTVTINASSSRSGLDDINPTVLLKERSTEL

[16] = system: Liver microsomes; assay: Metabolic stability in human liver microsomes; format: ADME, Microsome
[17] = biological target: T4, Histamine H4 receptor (Mus musculus, UniProt Q91ZY2); assay: Antagonist activity at mouse histamine H4 receptor expressed in HEK293 cells assessed as inhibition of histamine-induced intracellular calcium elevation by FLIPR assay; format: functional, cell-based
T4 sequence (Q91ZY2 whole entry): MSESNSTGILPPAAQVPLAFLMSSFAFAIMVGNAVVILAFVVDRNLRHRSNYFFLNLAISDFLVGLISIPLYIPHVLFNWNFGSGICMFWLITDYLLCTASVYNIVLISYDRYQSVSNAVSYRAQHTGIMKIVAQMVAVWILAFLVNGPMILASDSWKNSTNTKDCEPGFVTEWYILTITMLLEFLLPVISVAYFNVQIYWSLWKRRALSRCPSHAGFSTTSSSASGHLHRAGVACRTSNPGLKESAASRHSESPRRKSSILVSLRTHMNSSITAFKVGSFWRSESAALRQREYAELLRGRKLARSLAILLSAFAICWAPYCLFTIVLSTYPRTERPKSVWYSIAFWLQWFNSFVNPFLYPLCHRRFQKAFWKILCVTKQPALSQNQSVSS

[18] = Metabolic stability in mouse liver microsomes; format: ADME, Microsome
[19] = Fractional bioavailability in rat at 10 mg/kg, iv and 10 mg/kg, po; format: ADME, organism-based; conditions: in vivo
[20] = biological target: Delta-type opioid receptor (Homo sapiens) (UniProt P41143); assay: Binding affinity to delta opioid receptor
Sequence of Delta-type opioid receptor (Homo sapiens) (P41143 whole entry): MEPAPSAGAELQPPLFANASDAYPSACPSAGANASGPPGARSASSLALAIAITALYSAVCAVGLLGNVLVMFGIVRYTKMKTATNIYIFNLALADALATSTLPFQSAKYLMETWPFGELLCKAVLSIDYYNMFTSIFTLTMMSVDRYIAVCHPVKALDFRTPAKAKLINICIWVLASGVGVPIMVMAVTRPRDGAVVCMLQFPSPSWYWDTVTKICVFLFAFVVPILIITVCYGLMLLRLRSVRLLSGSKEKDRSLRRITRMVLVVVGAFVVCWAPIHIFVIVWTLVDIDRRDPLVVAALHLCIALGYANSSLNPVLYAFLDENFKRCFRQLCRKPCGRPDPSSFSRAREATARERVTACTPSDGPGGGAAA

[21] = Selectivity ratio of Ki for human histamine H4 receptor to Ki for histamine H1 receptor
[22] = Selectivity ratio of Ki for human histamine H4 receptor to Ki for dopamine D2 receptor
[23] = system: Liver microsomes; assay: Metabolic stability in rat liver microsomes; format: ADME, Microsome
[24] = Selectivity ratio of Ki for human histamine H4 receptor to Ki for adrenergic alpha1 receptor
[25] = Selectivity ratio of Ki for human histamine H4 receptor to Ki for histamine H2 receptor
[26] = biological target: Cannabinoid receptor 2 (Homo sapiens) (UniProt P34972); assay: Binding affinity to CB2 receptor
Sequence of Cannabinoid receptor 2 (Homo sapiens) (P34972 whole entry): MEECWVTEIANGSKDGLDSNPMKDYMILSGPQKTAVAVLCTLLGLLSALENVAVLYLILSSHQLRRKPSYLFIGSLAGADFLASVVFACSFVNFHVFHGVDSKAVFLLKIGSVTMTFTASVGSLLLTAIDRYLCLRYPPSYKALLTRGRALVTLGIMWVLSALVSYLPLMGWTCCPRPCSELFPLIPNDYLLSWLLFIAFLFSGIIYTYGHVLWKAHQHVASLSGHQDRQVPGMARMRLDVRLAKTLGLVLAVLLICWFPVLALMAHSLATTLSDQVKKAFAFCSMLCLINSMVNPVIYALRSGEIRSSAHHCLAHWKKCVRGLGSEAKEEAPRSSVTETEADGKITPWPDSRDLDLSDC

[27] = biological target: Cytochrome P450 2C9 (Homo sapiens, UniProt P11712); assay: Inhibition of CYP2C9 upto 10 uM; format: ADME
Sequence of Cytochrome P450 2C9 (P11712 whole entry): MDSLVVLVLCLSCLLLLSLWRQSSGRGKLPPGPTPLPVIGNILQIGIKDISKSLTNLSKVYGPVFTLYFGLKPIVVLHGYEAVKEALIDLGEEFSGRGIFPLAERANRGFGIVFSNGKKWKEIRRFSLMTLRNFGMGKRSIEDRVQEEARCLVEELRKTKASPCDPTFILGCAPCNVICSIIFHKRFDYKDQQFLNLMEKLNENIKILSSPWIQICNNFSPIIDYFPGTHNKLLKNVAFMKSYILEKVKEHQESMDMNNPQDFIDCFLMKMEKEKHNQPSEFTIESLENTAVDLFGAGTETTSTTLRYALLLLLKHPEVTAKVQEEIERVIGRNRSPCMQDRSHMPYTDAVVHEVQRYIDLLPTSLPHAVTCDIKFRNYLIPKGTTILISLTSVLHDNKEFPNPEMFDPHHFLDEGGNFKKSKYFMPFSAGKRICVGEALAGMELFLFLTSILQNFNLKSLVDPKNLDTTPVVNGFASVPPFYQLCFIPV

[28] = biological target: T1, Histamine H4 receptor; assay: Displacement of [3H]histamine from human histamine H4 receptor expressed in HEK293 cells; format: cell-based
[29] = biological target: Mu-type opioid receptor (Homo sapiens) (UniProt P35372); assay: Binding affinity to mu opioid receptor
Sequence of Mu-type opioid receptor (Homo sapiens) (P35372 whole entry): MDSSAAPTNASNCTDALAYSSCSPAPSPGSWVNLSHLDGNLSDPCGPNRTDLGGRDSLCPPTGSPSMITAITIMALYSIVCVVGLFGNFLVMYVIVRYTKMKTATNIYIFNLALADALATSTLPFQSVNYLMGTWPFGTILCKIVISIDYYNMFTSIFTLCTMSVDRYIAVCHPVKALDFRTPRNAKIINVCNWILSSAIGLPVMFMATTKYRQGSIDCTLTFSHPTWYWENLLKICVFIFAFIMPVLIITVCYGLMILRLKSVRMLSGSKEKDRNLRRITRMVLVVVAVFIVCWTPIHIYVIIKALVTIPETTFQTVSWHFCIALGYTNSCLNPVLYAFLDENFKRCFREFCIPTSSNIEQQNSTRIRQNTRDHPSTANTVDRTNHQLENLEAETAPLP

[30] = biological target: Cytochrome P450 2D6 (Homo sapiens, UniProt P10635); assay: Inhibition of CYP2D6 upto 10 uM; format: ADME
Sequence of Cytochrome P450 2D6 (P10635 whole entry): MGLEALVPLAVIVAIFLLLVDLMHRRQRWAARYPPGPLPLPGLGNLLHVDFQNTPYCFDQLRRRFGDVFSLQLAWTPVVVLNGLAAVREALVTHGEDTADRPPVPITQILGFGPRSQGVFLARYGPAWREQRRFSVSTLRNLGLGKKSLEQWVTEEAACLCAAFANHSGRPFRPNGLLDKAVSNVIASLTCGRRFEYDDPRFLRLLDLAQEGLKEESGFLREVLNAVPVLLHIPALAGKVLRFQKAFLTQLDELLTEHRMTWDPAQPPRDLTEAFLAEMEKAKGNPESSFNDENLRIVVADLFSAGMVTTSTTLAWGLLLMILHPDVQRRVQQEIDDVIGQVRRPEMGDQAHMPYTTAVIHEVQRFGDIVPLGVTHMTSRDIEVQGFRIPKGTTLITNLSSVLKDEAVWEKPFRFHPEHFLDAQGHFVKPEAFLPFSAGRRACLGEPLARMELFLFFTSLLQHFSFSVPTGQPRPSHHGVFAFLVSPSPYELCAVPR

[31] = biological target: Prostaglandin G/H synthase 1 (Homo sapiens) (UniProt P23219); assay: Binding affinity at COX1
Sequence of Prostaglandin G/H synthase 1 (Homo sapiens) (P23219 whole entry): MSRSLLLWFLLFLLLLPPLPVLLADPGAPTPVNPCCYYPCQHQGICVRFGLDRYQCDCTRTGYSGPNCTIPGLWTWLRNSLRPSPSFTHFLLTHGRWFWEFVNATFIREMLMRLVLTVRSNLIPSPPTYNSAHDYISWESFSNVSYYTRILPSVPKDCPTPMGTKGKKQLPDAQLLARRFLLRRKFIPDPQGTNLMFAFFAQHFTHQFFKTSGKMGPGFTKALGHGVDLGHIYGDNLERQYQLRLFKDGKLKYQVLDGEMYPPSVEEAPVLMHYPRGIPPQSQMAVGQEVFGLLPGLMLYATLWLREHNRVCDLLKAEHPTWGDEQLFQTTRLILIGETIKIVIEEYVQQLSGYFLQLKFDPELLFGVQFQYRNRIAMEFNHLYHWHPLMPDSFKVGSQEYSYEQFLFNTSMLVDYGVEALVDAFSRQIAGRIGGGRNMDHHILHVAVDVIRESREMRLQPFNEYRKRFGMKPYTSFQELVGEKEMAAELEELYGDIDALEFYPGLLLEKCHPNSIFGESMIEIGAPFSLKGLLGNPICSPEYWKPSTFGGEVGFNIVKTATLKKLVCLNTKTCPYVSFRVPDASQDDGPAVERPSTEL

[32] = biological target: T2, Histamine H4 receptor; assay: Displacement of [3H]histamine from rat histamine H4 receptor expressed in HEK293 cells; format: cell-based
[33] = Terminal volume of distribution in rat at 10 mg/kg, iv; format: ADME, organism-based; parameters: dose 10 mg/kg, route intravenous; conditions: in vivo, read-out: Vbeta
[34] = Blood clearance in rat at 10 mg/kg, iv; format: ADME, organism-based; parameters: dose 10 mg/kg, route intravenous; conditions: whole blood
[35] = Selectivity ratio of Ki for human histamine H4 receptor to Ki for 5HT1D receptor
[36] = Selectivity ratio of Ki for human histamine H4 receptor to Ki for 5HT1A receptor
[37] = biological target: Histamine H4 receptor (Rattus norvegicus) (UniProt Q91ZY1); assay: Antagonist activity at rat histamine H4 receptor expressed in HEK293 cells assessed as inhibition of histamine-induced intracellular calcium elevation by FLIPR assay relative to histamine; format: functional, cell-based

Sequence of Histamine H4 receptor (Rattus norvegicus) (Q91ZY1 whole entry): as the sequence (Q91ZY1 whole entry) above
T1 sequence (Q9H3N8 whole entry): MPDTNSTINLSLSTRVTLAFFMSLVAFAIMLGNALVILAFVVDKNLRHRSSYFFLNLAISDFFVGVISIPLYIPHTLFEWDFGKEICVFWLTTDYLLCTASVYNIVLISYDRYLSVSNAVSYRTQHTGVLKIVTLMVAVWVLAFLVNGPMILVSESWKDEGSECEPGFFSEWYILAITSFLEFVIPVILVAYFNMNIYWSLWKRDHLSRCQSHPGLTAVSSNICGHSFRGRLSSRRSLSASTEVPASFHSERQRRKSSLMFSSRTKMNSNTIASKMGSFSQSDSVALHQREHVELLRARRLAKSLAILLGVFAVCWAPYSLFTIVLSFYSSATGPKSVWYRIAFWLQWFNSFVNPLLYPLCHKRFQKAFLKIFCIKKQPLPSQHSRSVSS

CN[C@@H]1CCN(c2nc(N)nc3c2CCCCCc2ccccc2-3)C1
pKb [1]: 7.6 | pKb [2]: 7.25 | Activity [3]: inactive

CN[C@@H]1CCN(c2nc(N)nc3c2Cc2ccccc2-3)C1
pKb [1]: 8.5 | EC50 [4]: 19.1 nM

CN[C@@H]1CCN(c2nc(N)nc3c2CCc2ccccc2-3)C1
pKb [1]: 8.29 | pKb [2]: 7.66

Nc1nc2c(c(N3CCNCC3)n1)CCCc1ccc(F)cc1-2
fraction unbound [5]: 0.34 | Activity [6]: Not Active | Ratio Ki [7]: 765 | Activity [8]: inactive | Activity [9]: inactive | pKb [1]: 8.01 | EC50 [4]: 6.03 nM | Ratio Ki [10]: 470 | ED50 [11]: 10 µmol/kg | half-life [12]: 3.5 h | fraction unbound [13]: 0.39 | ED50 [14]: 134 µmol/kg | Activity [15]: inactive | Stability [16]: 27.3 pmol/min/mg | EC50 [17]: 4.79 nM | Stability [18]: 32.4 pmol/min/mg | bioavailability [19]: 18% | Activity [20]: inactive | Ratio Ki [21]: > 1290 | Ratio Ki [22]: > 2000 | Activity [3]: Active | Stability [23]: 200 pmol/min/mg | Ratio Ki [24]: 1220 | Ratio Ki [25]: > 1820 | Activity [26]: inactive | Activity [27]: Not Active | Ki ([28]; read-out: Ki): 5.1 nM | Activity [29]: inactive | Activity [30]: Not Active | Activity [31]: inactive | Ki [32]: 1.45 nM | Vd [33]: 18.2 L/kg | clearance [34]: 3.6 L/h/kg | Ratio Ki [35]: 850 | Ratio Ki [36]: 3070

Nc1nc2c(c(N3CCNCC3)n1)Cc1ccccc1-2
fraction unbound [5]: 0.31 | Activity [6]: Not Active | pKb [1]: 8.75 | EC50 [4]: 20 nM | fraction unbound [13]: 0.72 | Efficacy [37]: 96% | Stability [16]: 18.7 pmol/min/mg | Stability [18]: 43.6 pmol/min/mg | Stability [23]: 65.8 pmol/min/mg | Activity [27]: Not Active | Ki ([28]; read-out: pKi (converted)): 12.9 nM | Activity [30]: Not Active | Ki [32]: 4.79 nM

CN1CCN(c2nc(N)nc3c2CCc2ccccc2-3)CC1
fraction unbound [5]: 0.3 | Activity [6]: Not Active | pKb [1]: 8.08 | EC50 [4]: 15.5 nM | fraction unbound [13]: 0.22 | Efficacy [37]: 76% | Stability [16]: 102 pmol/min/mg | Stability [18]: 195 pmol/min/mg | Stability [23]: 192 pmol/min/mg | Activity [27]: Not Active | Ki ([28]; read-out: pKi (converted)): 15.5 nM | Activity [30]: Not Active | Ki [32]: 5.37 nM
